The record followed here is US9421177B2, “Imidamide sphingosine kinase inhibitors” (University of Virginia Patent Foundation, priority 2009, dated 2016).

The nature of data set [1]: Pro-drug activity: conversion of amidoxime to amidine in mice. Format: in vivo. As to conditions: 20 mpk, IP or oral, FIG. 7B. The procedure:
Mice were dosed with 20 mpk of amidoxime, VPC96143, both IP and orally. S1P in plasma and organs was measured at times ASAP, 2 hrs and 24 hrs. The compound amidine, VPC96077, was also measured in plasma and organs at times ASAP, 2 hrs and 24 hrs.
Mice Numbering • 51: dosed with 20 mpk amidoxime VPC96143 administered IP. Plasma extracted ASAP and 2 hrs. Organs harvested at 2 hrs. • 52: dosed with 20 mpk amidoxime VPC96143 administered IP. Plasma extracted ASAP and 24 hrs. Organs harvested at 2 hrs. • 53: dosed with 20 mpk amidoxime VPC96143 administered orally. Plasma extracted ASAP and 2 hrs. Organs harvested at 2 hrs.

The target of the next data set is human SphK1 (Homo sapiens (Human), UniProt Q9NYA1). The experiment in a line: Determination of Ki values, recombinant human SphK1 in Sf9 cell homogenates. Format: biochemical. As to conditions: amidine HCl salt; recombinant human SphK1, Sf9 homogenate, 37 C, 20 minutes; read-out: SphK1 inhibitory constant (Ki). On the procedure: (§1) Sphingosine kinase activity was assessed as described previously (Kharel, Y., Lee, S., Snyder, A. H., Sheasley-O'Neill, S. L., Morris, M. A., Setiady, Y., Zhu, R., Zigler, M. A., Burcin, T. L., Ley, K., Tung, K. S. K., Engelhard, V. H., Macdonald, T. L. and Lynch, K. R. Sphingosine kinase 2 is required for modulation of lymphocyte traffic by FTY720. J Biological Chemistry 280: 36865-36872 (2005)). High levels of human sphingosine kinase type 1 (mSK1) and mouse sphingosine kinase type 2 (mSK2) were expressed in Sf9 insect cells by infection with cognate baculoviruses. Crude homogenates were incubated with γ-[^32P]ATP and 10 micromolar D-erythro-sphingosine in the presence of 100 micromolar concentrations of test compounds for 20 minutes at 37 C. The product, radiolabeled S1P, was isolated by extraction into organic solvents after acidification and […] by thin layer chromatography. […]
(§2) Crude homogenates of Sf9 cells containing high levels of recombinant mouse SphK2 or human SphK1 were incubated with γ-[^32P]ATP and various concentrations (0 to 500 micromolar) of D-erythro-sphingosine for 20 minutes […] at 37 C in the presence of fixed concentration of test compound. The product, radiolabeled S1P, was isolated by extraction into organic solvents followed by thin layer chromatography, recovered and radioactivity measured by liquid scintillation counting. […]

A further data set addresses mouse SphK2 (Mus musculus (Mouse), UniProt Q9JIA7). The experiment in a line: Determination of Ki values, recombinant mouse SphK2 in Sf9 cell homogenates. Type of data set: biochemical. The settings on record: amidine HCl salt; recombinant mouse SphK2, Sf9 homogenate, 37 C, 20 minutes; read-out: SphK2 inhibitory constant (Ki). On the procedure: as §1, §2

Chain of human SphK1 (Q9NYA1 whole entry): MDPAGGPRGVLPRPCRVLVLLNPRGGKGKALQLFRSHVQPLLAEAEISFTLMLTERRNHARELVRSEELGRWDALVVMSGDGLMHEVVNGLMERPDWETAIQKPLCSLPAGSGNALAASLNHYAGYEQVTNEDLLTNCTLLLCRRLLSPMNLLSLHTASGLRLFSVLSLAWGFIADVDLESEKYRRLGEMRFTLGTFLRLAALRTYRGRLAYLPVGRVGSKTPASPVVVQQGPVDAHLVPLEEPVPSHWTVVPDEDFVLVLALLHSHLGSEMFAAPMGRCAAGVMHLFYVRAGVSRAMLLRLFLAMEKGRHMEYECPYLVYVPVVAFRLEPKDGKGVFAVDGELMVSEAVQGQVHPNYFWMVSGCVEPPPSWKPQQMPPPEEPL
Chain of mouse SphK2 (Q9JIA7 whole entry): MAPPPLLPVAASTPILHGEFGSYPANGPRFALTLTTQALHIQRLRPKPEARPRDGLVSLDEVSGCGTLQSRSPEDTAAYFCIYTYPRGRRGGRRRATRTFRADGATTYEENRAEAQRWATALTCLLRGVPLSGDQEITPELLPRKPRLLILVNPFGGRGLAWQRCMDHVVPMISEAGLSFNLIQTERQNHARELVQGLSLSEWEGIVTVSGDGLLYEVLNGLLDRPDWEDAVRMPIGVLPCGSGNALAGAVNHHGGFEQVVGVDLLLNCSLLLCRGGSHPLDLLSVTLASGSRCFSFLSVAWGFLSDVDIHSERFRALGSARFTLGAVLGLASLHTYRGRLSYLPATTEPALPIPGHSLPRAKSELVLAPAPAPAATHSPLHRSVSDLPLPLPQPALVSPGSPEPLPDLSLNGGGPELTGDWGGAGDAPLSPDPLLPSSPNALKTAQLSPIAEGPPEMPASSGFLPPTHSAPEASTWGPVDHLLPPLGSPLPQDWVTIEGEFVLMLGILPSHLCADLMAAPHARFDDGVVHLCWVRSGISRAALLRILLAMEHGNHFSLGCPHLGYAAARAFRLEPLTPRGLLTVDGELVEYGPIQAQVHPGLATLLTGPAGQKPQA

For the molecule `CCCCCCCCCCCc1ccc(C(=O)N2CCC[C@H]2/C(N)=N/O)cc1` [VPC96143], the “conversion of amidoxime pro-drug to amidine congener VPC96077 (accumulation in plasma)” value in data set [1] is recorded as “conversion of the amidoxime to the amidine in vivo”.

A word on the Ki: it is a dissociation constant, usually derived from enzyme kinetics or from competition with a known ligand. Take `N/C(=N\O)C1(C(=O)Nc2ccc(CCCCCCCCCc3ccccc3)cc2)CC1` [VPC143129]: the Ki at human SphK1 was 500 nM; at mouse SphK2, > 10000 nM.
